The values that follow come from paper PMC8390638, “Termitomenins F and G, Two New Lignan Glucosides from Terminalia chebula var. tomentella (Kurz) C. B. Clarke” (Natural Products and Bioprospecting, 2021).

The experiment has as its target α-glucosidase. Nature of the experiment: α-glucosidase inhibitor screening assay (PNPG substrate, absorbance at 405 nm). It is filed as biochemical. As to conditions: means ± SD (n = 3), phosphate buffer pH 6.8, 37 °C, 1 h, Reed and Muench method, read-out: IC50 (one-half maximal inhibitory concentration to α-glucosidase). How it is done: The α-glucosidase inhibitor screening assay was conducted as reported previously and slightly modified. […] 4-Nitrophenol-α-D-glucopyranoside (PNPG) was used as an enzyme inhibitor screening model. α-glucosidase solution (0.025 U·mL^−1), PNPG (0.1 M), phosphate buffer (pH 6.8) and test samples (50 μM) were incubated in 96-well plates at 37 °C for 1 h. A microplate reader was recorded by the absorbance at 405 nm. No enzyme as the blank readings were subtracted from each well and compared to the control. In this assay, all reactions were performed in triplicate. The α-glucosidase inhibitory activity was presented as inhibition ratio. The formula to calculate the inhibition rate is as follows: inhibition rate (%) = (1 ‒ OD experimental 405 nm/OD […] 405 nm) × 100%, and IC50 values were calculated according to the Reed and Muench method.

With `O=C(O[C@@H]1O[C@@H]2COC(=O)c3cc(O)c(O)c(O)c3-c3c(cc(O)c(O)c3O)C(=O)O[C@H]([C@H]1O)[C@@H]2O)c1cc(O)c(O)c(O)c1` [Compound 13, corilagin], the IC50 turned out to be 3.12 ± 0.23 µM. Regarding `O=C(OC[C@H]1O[C@@H](OC(=O)c2cc(O)c(O)c(O)c2)[C@H](O)[C@@H](OC(=O)c2cc(O)c(O)c(O)c2)[C@@H]1O)c1cc(O)c(O)c(O)c1` [Compound 11, 1,3,6-tri-O-galloyl-β-D-glucopyranose], the IC50 stood at 2.28 ± 0.07 µM. In the case of `O=C(OC[C@H]1O[C@@H](OC(=O)c2cc(O)c(O)c(O)c2)[C@H](OC(=O)c2cc(O)c(O)c(O)c2)[C@@H](OC(=O)c2cc(O)c(O)c(O)c2)[C@@H]1OC(=O)c1cc(O)c(O)c(O)c1)c1cc(O)c(O)c(O)c1` [Compound 12, 1,2,3,4,6-penta-O-galloyl-β-D-glucopyranose], the IC50 is 0.1 ± 0.01 µM. Regarding `O=C1O[C@H]2[C@@H]3OC(=O)c4cc(O)c(O)c(O)c4-c4c(O)c(O)c5oc(=O)c6c(c(O)c(O)c7oc(=O)c4c5c76)-c4c(cc(O)c(O)c4O)C(=O)OC[C@H]3OC(O)[C@@H]2OC(=O)c2cc(O)c(O)c(O)c2-c2c1cc(O)c(O)c2O` (mixture of isomers) [Compound 10, punicalagin], the IC50 worked out at 0.27 ± 0.01 µM.
